Assay results as given in US20090136448A1, “Antiviral 2-Carboxy-Thiophene Compounds” (priority 2005, published 2009).
pIC50: −log10 of the molar value.

Key:
[1] = test system: HCV replication, genotype 1a (Huh-7 HCV replicon cell); assay: Replicon ELISA cell based assay, genotype 1a; conditions: Hepatitis C virus, Huh-7 HCV replicon cells, 72 hours, mean, assayed at least twice
Description: (§1) Replicon ELISA Cell Based Assay
(§2) 100 μL of medium containing 10% FCS were added to each well of clear, flat-bottomed 96 well microplates, excepting wells in the top row. Test compound was diluted in assay medium to twice the final required starting concentration from a 40 mM stock solution in DMSO. 200 μL of the starting dilution were introduced into two wells each in the top row and doubling dilutions made down the plate by the sequential transfer of 100 μL aliquots with thorough mixing in the wells; the final 100 μL were discarded. The two bottom rows were not used for compound dilutions. Huh-7 HCV replicon cell monolayers nearing confluency were stripped from growth flasks with versene-trypsin solution and the cells were resuspended in assay medium at either 2×10^5 cells/mL (sub-line 5-15; genotype 1b; Lohmann, V., Korner, F., Koch, J-O., Herian, U., Thielmann, L. and Bartenschlager, R., Science, 1999, 285, 110-113) or at 3×10^5 cells/mL (genotype 1a; Gu, B., Gates, A. T., Isken, O., Behrens, S. E. and Sarisky, R. T., J. Virol., 2003, 77, 5352-5359). 100 μL of cell suspension were added to all wells and the plates incubated at 37° C. for 72 hours in a 5% CO2 atmosphere.
(§3) Following incubation, the assay medium was aspirated from the plates. The cell sheets were washed by gentle immersion in phosphate buffered saline (PBS), which was then aspirated off, and fixed with acetone:methanol (1:1) for 5 minutes. Following a further wash with PBS, 100 μL of ELISA diluent (PBS+0.05% v/v Tween 20+2% w/v skimmed milk powder) were added to all wells and the plates incubated at 37° C. for 30 minutes on an orbital platform. The diluent was removed and each well then received 50 μL of a 1/200 dilution of anti-HCV specific, murine, monoclonal antibody (either Virostat #1872 or #1877), except for wells in one of the compound-free control rows which received diluent alone to act as negative controls. The plates were incubated at 37° C. for 2 hours and washed 3 times with PBS/0.05% Tween 20, then 50 μL of horseradish peroxidase conjugated, anti-mouse, rabbit polyclonal serum (Dako #P0260), diluted 1/1000, were added to all wells. The plates were incubated for a further hour, the antibody removed and the cell sheets washed 5 times with PBS/Tween and blotted dry. The assay was developed by the addition of 50 μL of ortho-phenylenediamine/peroxidase substrate in urea/citrate buffer (SigmaFast, Sigma #P-9187) to each well, and colour allowed to develop for up to 15 minutes. The reaction was stopped by the addition of 25 μL per well of 2 M sulphuric acid and the plates were read at 490 nm on a Fluostar Optima spectrophotometer.
(§4) The substrate solution was removed and the plates were washed in tap water, blotted dry and the cells stained with 5% carbol fuchsin in water for 30 minutes. The stain was discarded and the cell sheets washed, dried and examined microscopically to assess cytotoxicity.
(§5) The absorbance values from all compound-free wells that had received both primary and secondary antibodies were averaged to obtain a positive control value. The mean absorbance value from the compound-free wells that had not received the primary antibody was used to provide the negative (background) control value. The readings from the duplicate wells at each compound concentration were averaged and, after the subtraction of the mean background from all values, were expressed as a percentage of the positive control signal. The quantifiable and specific reduction of expressed protein detected by the ELISA in the presence of a drug can be used as a measure of replicon inhibition. GraFit software (Erithacus Software Ltd.) was used to plot the curve of percentage inhibition against compound concentration and derive the 50% inhibitory concentration (IC50) for the compound.

[2] = test system: HCV replication, genotype 1b (Huh-7 HCV replicon cell, sub-line 5-15); assay: Replicon ELISA cell based assay, genotype 1b; conditions: Hepatitis C virus, Huh-7 HCV replicon cells, genotype 1b (sub-line 5-15), 72 hours, mean, assayed at least twice
Description: as §1, §2, §3, §4, §5

## CC(C)N(c1cc(-c2ccc(-c3cc4ncccn4n3)cc2)sc1C(=O)O)C(=O)[C@H]1CC[C@H](C(F)(F)F)CC1 [Example 15, 3-((1-Methylethyl){[trans-4-(trifluoromethyl)cyclohexyl]carbonyl}-amino)-5-(4-pyrazolo[1,5-a]pyrimidin-2-ylphenyl)-2-thiophenecarboxylic acid]
[1]
  pIC50: 6.30 to 7.00
[2]
  pIC50: 7.00 to 7.30

## CC(C)N(c1cc(-c2ccc(-c3nc4c(N)cccc4o3)cc2)sc1C(=O)O)C(=O)[C@H]1CC[C@H](C)CC1 [Example 16, 5-[4-(4-Amino-1,3-benzoxazol-2-yl)phenyl]-3-[[(trans-4-methylcyclohexyl)carbonyl](1-methylethyl)amino]-2-thiophenecarboxylic acid]
[1]
  pIC50: 7.30 to 8.00
[2]
  pIC50: 7.30 to 8.00

## CC(C)N(c1cc(-c2ccc(-c3ccn4nccc4n3)cc2)sc1C(=O)O)C(=O)[C@H]1CC[C@H](C)CC1 [Example 17, 3-[[(trans-4-Methylcyclohexyl)carbonyl](1-methylethyl)amino]-5-(4-pyrazolo[1,5-a]pyrimidin-5-ylphenyl)-2-thiophenecarboxylic acid]
[1]
  pIC50: 6.30 to 7.00
[2]
  pIC50: 6.30 to 7.00

## CC(C)N(c1cc(-c2ccc(-c3cc4ncccc4o3)nc2)sc1C(=O)O)C(=O)[C@H]1CC[C@H](C)CC1 [Example 18, 5-(6-Furo[3,2-b]pyridin-2-yl-3-pyridinyl)-3-[[(trans-4-methylcyclohexyl)carbonyl](1-methylethyl)amino]-2-thiophenecarboxylic acid]
[1]
  pIC50: 7.00 to 7.30
[2]
  pIC50: 7.30 to 8.00

## CC(C)N(c1cc(-c2ccc(-c3cc4cccc(O)c4o3)cc2)sc1C(=O)O)C(=O)[C@H]1CC[C@H](C)CC1 [Example 19, 5-[4-(7-Hydroxy-1-benzofuran-2-yl)phenyl]-3-[[(trans-4-methylcyclohexyl)carbonyl](1-methylethyl)amino]-2-thiophenecarboxylic acid]
[1]
  pIC50: > 8.30
[2]
  pIC50: > 8.30

## CC(C)N(c1cc(-c2ccc(-c3nc4cccc(O)c4o3)cc2)sc1C(=O)O)C(=O)[C@H]1CC[C@H](C)CC1 [Example 20, 5-[4-(7-Hydroxy-1,3-benzoxazol-2-yl)phenyl]-3-[[(trans-4-methylcyclohexyl)carbonyl](1-methylethyl)amino]-2-thiophenecarboxylic acid]
[1]
  pIC50: 6.30 to 7.00
[2]
  pIC50: 7.30 to 8.00

## CC(C)N(c1cc(-c2ccc(-c3cn4ccsc4n3)cc2)sc1C(=O)O)C(=O)[C@H]1CC[C@H](C(F)(F)F)CC1 [Example 21, 5-(4-Imidazo[2,1-b][1,3]thiazol-6-ylphenyl)-3-((1-methylethyl){[trans-4-(trifluoromethyl)cyclohexyl]carbonyl}amino)-2-thiophenecarboxylic acid]
[1]
  pIC50: 7.00 to 7.30
[2]
  pIC50: 6.30 to 7.00

## CC(C)N(c1cc(-c2ccc(-c3cc4ncccc4o3)cc2)sc1C(=O)O)C(=O)[C@H]1CC[C@H](C(F)(F)F)CC1 [Example 22, 5-(4-Furo[3,2-b]pyridin-2-ylphenyl)-3-((1-methylethyl){[trans-4-(trifluoromethyl)cyclohexyl]carbonyl}amino)-2-thiophenecarboxylic acid]
[1]
  pIC50: 7.00 to 7.30
[2]
  pIC50: 7.00 to 7.30

## CC(C)N(c1cc(-c2ccc(-c3nc4ccc(N)cc4o3)cc2)sc1C(=O)O)C(=O)[C@H]1CC[C@H](C)CC1 [Example 23, 5-[4-(6-Amino-1,3-benzoxazol-2-yl)phenyl]-3-[[(trans-4-methylcyclohexyl)carbonyl](1-methylethyl)amino]-2-thiophenecarboxylic acid]
[1]
  pIC50: 7.00 to 7.30
[2]
  pIC50: 7.30 to 8.00

## CC(C)N(c1cc(-c2ccc(-c3cc4cccnn4n3)cc2)sc1C(=O)O)C(=O)[C@H]1CC[C@H](C)CC1 [Example 24, 3-[[(trans-4-Methylcyclohexyl)carbonyl](1-methylethyl)amino]-5-(4-pyrazolo[1,5-b]pyridazin-2-ylphenyl)-2-thiophenecarboxylic acid]
[1]
  pIC50: 6.30 to 7.00
[2]
  pIC50: 7.30 to 8.00

## CC(C)N(c1cc(-c2ccc(-c3nc4ncccc4o3)cc2)sc1C(=O)O)C(=O)[C@H]1CC[C@H](C(F)(F)F)CC1 [Example 25, 3-((1-Methylethyl){[trans-4-(trifluoromethyl)cyclohexyl]carbonyl}amino)-5-(4-[1,3]oxazolo[4,5-b]pyridin-2-ylphenyl)-2-thiophenecarboxylic acid]
[1]
  pIC50: 6.30 to 7.00
[2]
  pIC50: 6.30 to 7.00

## Cc1ccn2nc(-c3ccc(-c4cc(N(C(=O)[C@H]5CC[C@H](C(F)(F)F)CC5)C(C)C)c(C(=O)O)s4)cc3)cc2n1 [Example 26, 3-((1-Methylethyl){[trans-4-(trifluoromethyl)cyclohexyl]carbonyl}amino)-5-[4-(5-methylpyrazolo[1,5-a]pyrimidin-2-yl)phenyl]-2-thiophenecarboxylic acid]
[1]
  pIC50: 6.30 to 7.00
[2]
  pIC50: 6.00 to 6.30

## CC(C)N(c1cc(-c2ccc(-c3cn4cc(N)ccc4n3)cc2)sc1C(=O)O)C(=O)[C@H]1CC[C@H](C)CC1 [Example 27, 5-[4-(6-Aminoimidazo[1,2-a]pyridin-2-yl)phenyl]-3-[[(trans-4-methylcyclohexyl)carbonyl](1-methylethyl)amino]-2-thiophenecarboxylic acid]
[1]
  pIC50: 6.30 to 7.00
[2]
  pIC50: 6.30 to 7.00

## CC(C)N(c1cc(-c2ccc(-c3ccc4nc[nH]c4c3)cc2)sc1C(=O)O)C(=O)[C@H]1CC[C@H](C)CC1 [Example 28, 5-[4-(1H-Benzimidazol-5-yl)phenyl]-3-[[(trans-4-methylcyclohexyl)carbonyl](1-methylethyl)amino]-2-thiophenecarboxylic acid]
[1]
  pIC50: 6.30 to 7.00
[2]
  pIC50: 6.30 to 7.00

## CC(C)N(c1cc(-c2ccc(-c3cc4cc(N)ccc4o3)cc2)sc1C(=O)O)C(=O)[C@H]1CC[C@H](C)CC1 [Example 29, 5-[4-(5-Amino-1-benzofuran-2-yl)phenyl]-3-[[(trans-4-methylcyclohexyl)carbonyl](1-methylethyl)amino]-2-thiophenecarboxylic acid]
[1]
  pIC50: 6.30 to 7.00
[2]
  pIC50: 6.30 to 7.00

## CC(C)N(c1cc(-c2ccc(-c3cc4ccc(N)cc4o3)cc2)sc1C(=O)O)C(=O)[C@H]1CC[C@H](C)CC1 [Example 30, 5-[4-(6-Amino-1-benzofuran-2-yl)phenyl]-3-[[(trans-4-methylcyclohexyl)carbonyl](1-methylethyl)amino]-2-thiophenecarboxylic acid]
[1]
  pIC50: 6.30 to 7.00
[2]
  pIC50: 6.00 to 6.30

## CC(C)N(c1cc(-c2coc(-c3nc4ccccc4o3)c2)sc1C(=O)O)C(=O)[C@H]1CC[C@H](C)CC1 [Example 31, 5-[5-(1,3-Benzoxazol-2-yl)-3-furanyl]-3-[[(trans-4-methylcyclohexyl)carbonyl](1-methylethyl)amino]-2-thiophenecarboxylic acid]
[1]
  pIC50: 6.30 to 7.00
[2]
  pIC50: 6.30 to 7.00

## CC(C)N(c1cc(-c2ccc(-c3cn4ccsc4n3)nc2)sc1C(=O)O)C(=O)[C@H]1CC[C@H](C)CC1 [Example 32, 5-(6-Imidazo[2,1-b][1,3]thiazol-6-yl-3-pyridinyl)-3-[[(trans-4-methylcyclohexyl)carbonyl](1-methylethyl)amino]-2-thiophenecarboxylic acid]
[1]
  pIC50: 6.30 to 7.00
[2]
  pIC50: 7.00 to 7.30

## CC(C)N(c1cc(-c2ccc(-c3cc4nccc(N)n4n3)c(Cl)c2)sc1C(=O)O)C(=O)[C@H]1CC[C@H](C)CC1 [Example 33, 5-[4-(7-Aminopyrazolo[1,5-a]pyrimidin-2-yl)-3-chlorophenyl]-3-[[(trans-4-methylcyclohexyl)carbonyl](1-methylethyl)amino]-2-thiophenecarboxylic acid]
[1]
  pIC50: > 8.30
[2]
  pIC50: > 8.30
